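96-well plates; 48 h exposure; 5 concentrations. Endpoints by linear interpolation between flanking doses. Not reached: highest tested concentration assigned. At the GI50, growth is halved.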 Activity calls are given as the source filed them. Rule as the data show it: active = GI50 up to about 1.1 µM and inactive = higher.
Assays:
Experiment in all cases: NCI tumour cell line growth inhibition, 48 h
SK-OV-3 = system: SK-OV-3
SW-620 = system: SW-620
DU-145 = system: DU-145
NCI-H460 = system: NCI-H460
SNB-19 = system: SNB-19
MCF7 = system: MCF7
A498 = system: A498
OVCAR-8 = system: OVCAR-8
SN12C = system: SN12C
RXF 393 = system: RXF 393
HCC 2998 = system: HCC 2998
K562 = system: K562
IGROV-1 = system: IGROV-1
MOLT-4 = system: MOLT-4
UO-31 = system: UO-31
HCT-116 = system: HCT-116
RPMI-8226 = system: RPMI-8226
SF-539 = system: SF-539
HOP-92 = system: HOP-92
HL-60 = system: HL-60

Row | SMILES | GI50 (SK-OV-3) | GI50 (SW-620) | GI50 (DU-145) | GI50 (NCI-H460) | GI50 (SNB-19) | GI50 (MCF7) | GI50 (A498) | GI50 (OVCAR-8) | GI50 (SN12C) | GI50 (RXF 393) | GI50 (HCC 2998) | GI50 (K562) | GI50 (IGROV-1) | GI50 (MOLT-4) | GI50 (UO-31) | GI50 (HCT-116) | GI50 (RPMI-8226) | GI50 (SF-539) | GI50 (HOP-92) | GI50 (HL-60)
1 | O=c1onc2n1-c1cc(Cl)ccc1C(=S)N1CSCC21 (configuration not stated) | > 100 µM (inactive) | > 100 µM (inactive) | > 100 µM (inactive) | > 100 µM (inactive) | > 100 µM (inactive) | > 100 µM (inactive) | > 100 µM (inactive) | > 100 µM (inactive) | > 100 µM (inactive) | > 100 µM (inactive) | > 100 µM (inactive) | 26.7 µM (inactive) | > 100 µM (inactive) | > 100 µM (inactive) | > 100 µM (inactive) | > 100 µM (inactive) | > 100 µM (inactive) | – | – | –
2 | COC1=CC(=O)c2c(cc(COP(=O)(OCC3OC(n4cc(F)c(=O)[nH]c4=O)CC3O)N(C)CCCCCl)n2C)C1=O (configuration not stated) | – | 0.141 µM (active) | 0.321 µM (active) | < 0.01 µM (active) | 0.951 µM (active) | < 0.01 µM (active) | – | 0.0593 µM (active) | < 0.0248 µM (active) | 0.0478 µM (active) | < 0.01 µM (active) | 1.98 µM (inactive) | 0.479 µM (active) | 0.0527 µM (active) | 0.0605 µM (active) | 0.138 µM (active) | < 0.0237 µM (active) | < 0.0118 µM (active) | 0.137 µM (active) | 0.195 µM (active)
3 | BrC(=C(c1ccc(OC2CCCCO2)cc1)c1ccc(OC2CCCCO2)cc1)c1ccccc1 (configuration not stated) | > 100 µM (inactive) | > 100 µM (inactive) | > 100 µM (inactive) | > 100 µM (inactive) | > 100 µM (inactive) | > 100 µM (inactive) | > 100 µM (inactive) | > 100 µM (inactive) | > 100 µM (inactive) | > 100 µM (inactive) | – | > 100 µM (inactive) | > 100 µM (inactive) | > 100 µM (inactive) | > 100 µM (inactive) | > 100 µM (inactive) | > 100 µM (inactive) | > 100 µM (inactive) | > 100 µM (inactive) | > 100 µM (inactive)
4 | CCn1cc2c(=O)n3ncn(-c4ccc(Br)cc4)c3nc2n1 | > 100 µM (inactive) | > 100 µM (inactive) | > 100 µM (inactive) | – | 49.9 µM (inactive) | > 100 µM (inactive) | > 100 µM (inactive) | 78.9 µM (inactive) | > 100 µM (inactive) | > 100 µM (inactive) | > 100 µM (inactive) | > 100 µM (inactive) | 29.6 µM (inactive) | > 100 µM (inactive) | > 100 µM (inactive) | > 100 µM (inactive) | 40.3 µM (inactive) | – | – | > 100 µM (inactive)
5 | Clc1ccc(C2Nc3ccccc3C3=NCCN32)cc1 (configuration not stated) | 26.1 µM (inactive) | 24.5 µM (inactive) | 39.8 µM (inactive) | 16.3 µM (inactive) | 27.9 µM (inactive) | 22.3 µM (inactive) | 22.9 µM (inactive) | 18.3 µM (inactive) | 29.8 µM (inactive) | 21.1 µM (inactive) | – | 15.7 µM (inactive) | 14.2 µM (inactive) | 36.4 µM (inactive) | 27.3 µM (inactive) | 12.4 µM (inactive) | 15.9 µM (inactive) | 15.6 µM (inactive) | 8.18 µM (inactive) | 22.1 µM (inactive)
6 | Cc1ccc(C(=O)N(Cc2ccccc2)Cc2ccccc2)cc1/N=N/N(C)C | 29.5 µM (inactive) | 43.1 µM (inactive) | 36.6 µM (inactive) | 14.7 µM (inactive) | 15 µM (inactive) | 24.2 µM (inactive) | – | 29.9 µM (inactive) | 14.6 µM (inactive) | – | 29.6 µM (inactive) | 27.2 µM (inactive) | 40.1 µM (inactive) | 26.4 µM (inactive) | 15.6 µM (inactive) | 8.39 µM (inactive) | 29 µM (inactive) | 18.5 µM (inactive) | 11.9 µM (inactive) | 22.6 µM (inactive)
7 | CC1(C)C2CC(c3ccncc3)ON2C(C)(C)N1O (configuration not stated) | > 100 µM (inactive) | > 100 µM (inactive) | > 100 µM (inactive) | > 100 µM (inactive) | > 100 µM (inactive) | > 100 µM (inactive) | – | > 100 µM (inactive) | > 100 µM (inactive) | > 100 µM (inactive) | > 100 µM (inactive) | > 100 µM (inactive) | > 100 µM (inactive) | > 100 µM (inactive) | > 100 µM (inactive) | > 100 µM (inactive) | > 100 µM (inactive) | > 100 µM (inactive) | > 100 µM (inactive) | > 100 µM (inactive)

Source: ChEMBL document CHEMBL1201862, “PubChem BioAssay data set” (2004)
